Test results from article PMC8192780 (2021).

Assays:
[1] = test system: Parent Chili (Tr1) (RNA, aptamer) GGCUAGCUGGAGGGGCGCCAGUUCGCUGGUGGUUGGGUGCGGUCGGCUAGCC; test: X-ray crystallography; conditions: K+ 50 mM, Mg2+ 5 mM, 10 mM HEPES pH 8.0, then MES pH 5.4-5.8, spermine, PEG 400
[2] = test system: Parent Chili (Tr1) (RNA, aptamer) GGCUAGCUGGAGGGGCGCCAGUUCGCUGGUGGUUGGGUGCGGUCGGCUAGCC; test: fluorescence activation; conditions: 40 mM HEPES pH 7.5
[3] = test system: c7G15 Chili with r4CI at 34 (R3 ligated to R4) (RNA, aptamer, 7-deazaguanine (c7G) at 15; 4-cyanoindole ribonucleoside (r4CI) replaces U34; 3'-phosphate on printed 3' fragment) GGCUAGCUGGAGGGGCGCCAGUUCGCUGGUGGUUGGGUGCGGUCGGCUAGCC; test: FRET from r4CI to ligand; conditions: K+ 125 mM, Mg2+ 5 mM; 40 mM HEPES pH 7.5
[4] = test system: c7G15 Chili with r4CI at 46 (R3 ligated to R5) (RNA, aptamer, 7-deazaguanine (c7G) at 15; 4-cyanoindole ribonucleoside (r4CI) replaces G46; 3'-phosphate on printed 3' fragment) GGCUAGCUGGAGGGGCGCCAGUUCGCUGGUGGUUGGGUGCGGUCGGCUAGCC; test: FRET from r4CI to ligand; conditions: K+ 125 mM, Mg2+ 5 mM; 40 mM HEPES pH 7.5
[5] = test system: Chili G15A (Tr12) (RNA, aptamer) GGCUAGCUGGAGGGACGCCAGUUCGCUGGUGGUUGGGUGCGGUCGGCUAGCC; test: absorbance and fluorescence; conditions: K+ 125 mM, Mg2+ 5 mM; 40 mM HEPES pH 7.5; 5 µM RNA and ligand
[6] = test system: Chili C40U (Tr13) (RNA, aptamer) GGCUAGCUGGAGGGGCGCCAGUUCGCUGGUGGUUGGGUGUGGUCGGCUAGCC; test: absorbance and fluorescence; conditions: K+ 125 mM, Mg2+ 5 mM; 40 mM HEPES pH 7.5; 5 µM RNA and ligand; 30% reduced fluorescence
[7] = test system: Chili G15A/C40U (Tr14) (RNA, aptamer) GGCUAGCUGGAGGGACGCCAGUUCGCUGGUGGUUGGGUGUGGUCGGCUAGCC; test: absorbance and fluorescence; conditions: K+ 125 mM, Mg2+ 5 mM; 40 mM HEPES pH 7.5; 5 µM RNA and ligand; binding site only partially restored
[8] = test system: c7G15-modified Chili (R3 ligated to R2) (RNA, aptamer, 7-deazaguanine (c7G) at 15; 3'-phosphate on printed 3' fragment) GGCUAGCUGGAGGGGCGCCAGUUCGCUGGUGGUUGGGUGCGGUCGGCUAGCC; test: absorbance and fluorescence; conditions: K+ 125 mM, Mg2+ 5 mM; 40 mM HEPES pH 7.5; 10 µM RNA and ligand (absorbance)
[9] = test system: Chili P1-1 (Tr4) (RNA, aptamer) GGCAGCUGGAGGGGCGCCAGUUCGCUGGUGGUUGGGUGCGGUCGGCUGCC; test: fluorescence activation; conditions: K+ 125 mM, Mg2+ 5 mM; 40 mM HEPES pH 7.5; 1 µM RNA and ligand; >80% of parent
[10] = test system: Chili P1-2 (Tr5) (RNA, aptamer) GGAGCUGGAGGGGCGCCAGUUCGCUGGUGGUUGGGUGCGGUCGGCUCC; test: fluorescence activation; conditions: K+ 125 mM, Mg2+ 5 mM; 40 mM HEPES pH 7.5; 1 µM RNA and ligand; >80% of parent
[11] = test system: Chili P1-3 (Tr6) (RNA, aptamer) GGACUGGAGGGGCGCCAGUUCGCUGGUGGUUGGGUGCGGUCGGUCC; test: fluorescence activation; conditions: K+ 125 mM, Mg2+ 5 mM; 40 mM HEPES pH 7.5; 1 µM RNA and ligand; >80% of parent
[12] = test system: Chili P1C (Tr2) (RNA, aptamer) GGCUAGCCGGAGGGGCGCCAGUUCGCUGGUGGUUGGGUGCGGUCGGCUAGCC; test: fluorescence activation; conditions: K+ 125 mM, Mg2+ 5 mM; 40 mM HEPES pH 7.5; 1 µM RNA and ligand; slower maturation than parent
[13] = test system: Chili P1A (Tr3) (RNA, aptamer) GGCUAGCUGGAGGGGCGCCAGUUCGCUGGUGGUUGGGUGCGGUCAGCUAGCC; test: fluorescence activation; conditions: K+ 125 mM, Mg2+ 5 mM; 40 mM HEPES pH 7.5; 1 µM RNA and ligand; slower maturation than parent
[14] = test system: circularly permuted Chili aptamer (Tr10) (RNA, aptamer) GGGUGCGGUCAGUCCGGAAGGACUGGAGGGGCGCCAGUUCGCUGGUGGUU; test: fluorescence activation; conditions: K+ 125 mM, Mg2+ 5 mM; 40 mM HEPES pH 7.5; 75% of P1A fluorescence enhancement

| binding ([1]; 2.25 Å) | binding ([2]; Na+ (replaces K+, 125 mM), 25% residual intensity against K+) | binding ([2]; Tl+ (replaces K+, 125 mM), intensity preserved against K+) | binding [3] | binding [4] | binding [5] | binding [6] | binding [7] | binding [8] | binding ([1]; 2.95 Å) | binding [9] | binding [10] | binding [11] | binding [12] | binding [13] | binding [14] | Structure (SMILES) |
| --- | --- | --- | --- | --- | --- | --- | --- | --- | --- | --- | --- | --- | --- | --- | --- | --- |
| yes | yes | yes | no | no | no | yes | yes | no | – | – | – | – | – | – | – | COc1cc(/C=C2N=C(/C=N/O)N(c3ccc([N+](C)(C)C)cc3)C\2=O)cc(OC)c1O |
| – | – | – | – | – | – | – | – | – | yes | yes | yes | yes | yes | yes | yes | COc1cc(/C=C2\N=C(C)N(c3ccc([N+](C)(C)C)cc3)C2=O)cc(OC)c1O |
